Results published in ChEMBL document CHEMBL5604062, “ASAP - ZIKV NS2B-NS3 protease fluorescence dose response” (2024).
Where “and” joins values, the source holds several entries; their conditions need not be identical. Equal values may be shown once.

Biological target: Nonstructural protein 3 (Zika virus, UniProt A0A024AXB9)
Experiment: Functional biochemical assay to identify treatments for viral infectious disease that targets Zika NS2B-NS3 protease. Utilizing a direct enzyme activity measurement method, reading the fluorescence intensity is used to characterize the relative potency of inhibitors as IC50.
Design: species or system PRVABC59

Chain of Nonstructural protein 3 (A0A024AXB9 whole entry): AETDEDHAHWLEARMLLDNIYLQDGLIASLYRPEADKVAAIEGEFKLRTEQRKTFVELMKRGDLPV

| SMILES | IC50 |
| --- | --- |
| NCc1cccc(NC(=O)[C@@H](NC(=O)OCc2ccccc2)c2cccc(-c3cncnc3)c2)c1 | > 99.5 µM |
| Cc1ccc2cc(Cl)cc(C(=O)Nc3ccc4c(c3)CNC4)c2n1 | 0.866 µM |
| O=C(O)CCc1ccc(NC(=O)c2cc(Cl)cc(C3CC3)c2)cc1 | > 99.5 µM |
| O=C1COc2cc(C(=O)Nc3ccc4c(c3)CNC4)ccc2N1 | 6.14 µM |
| O=C(Nc1ccc2c(c1)CNC2)c1cc(F)cc(-c2cnc3n2CCC3)c1 | 0.236 µM |
| O=C(Nc1cc(-c2cccnc2)ccn1)c1sc2c(c1Br)CNC2 | > 25 µM |
| c1cc(CN2CCC(c3c[nH]c4cccnc34)CC2)c2cn[nH]c2c1 | > 99.5 µM |
| CCCCNC(=O)[C@H](Nc1ccc2c(c1)CNC2)c1cc(Cl)cc(C2CC2)c1 | 0.057 µM and 0.03 µM |
| CCn1cc(C2=CCCNC2)nc(N2CC[C@@H](CO)C2)c1=O | > 99.5 µM |
| N#Cc1ccc(OCCn2nnn(-c3ccccc3)c2=O)cc1 | > 99.5 µM |
| Cc1cc(-c2cccc([C@@H](NC(=O)OCc3ccccc3)C(=O)Nc3cccc(CN)c3)c2)ccn1 | 88.1 µM |
| NCc1ccc2c(c1)[C@H](N1CCCC1=O)C[C@H](c1cc(Cl)cc(NC(=O)OCc3ccccc3)c1)N2 | 26.8 µM |
| c1ccc(-c2ncc(CN3CCC(c4nc5ccccc5s4)CC3)[nH]2)cc1 | > 99.5 µM |
| N#Cc1cc(-c2ccc3[nH]c(C(=O)O)cc3c2)c2nc[nH]c2c1 | > 99.5 µM |
| O=C(Nc1ccc2c(c1)CNC2)c1cc(Br)cc2[nH]ncc12 | 0.055 µM and 0.049 µM |
| O=C(Nc1ccc2c(c1)CNC2)c1ccc2sncc2c1 | 16 µM |
| CCCCCC(=O)N[C@H](C(=O)NCc1cccc(CN)c1)C1CCCCC1 | > 99.5 µM |
| Cn1cc(C(=O)N[C@@H](C(=O)Nc2cccc(CN)c2)c2ccc(OCc3ccccc3)cc2)cn1 | > 99.5 µM |
| N#C[C@]1(Nc2ccc3c(c2)CNC3)C(=O)Nc2ccc(Cl)cc21 | 1.54 µM |
| Cn1cc(-c2ccc([C@@H](NC(=O)OCc3ccccc3)C(=O)Nc3cccc(CN)c3)cc2)ccc1=O | > 99.5 µM |
| O=C(N[C@@H](C(=O)NCc1cccnc1)c1ccc(OCc2ccccc2)cc1)OCc1ccccc1 | > 99.5 µM |
| NC1(c2cccc(NS(=O)(=O)c3ccc(Oc4ccccc4Cl)cc3)c2)CCOCC1 | > 99.5 µM |
| O=C(Nc1ccc2c(c1)CNC2)c1cc(Cl)cc2c1cnn2C1CCC1 | 0.031 µM and 0.023 µM |
| CC(C)(C)OC(=O)NCc1cccc(NC(=O)C[C@H](N)c2ccc(OCc3ccccc3)c(Br)c2)c1 | > 99.5 µM |
| Cc1ccc(CN)cc1-c1cccc([C@H](NC(=O)OCc2ccccc2)C(=O)Nc2cccc(CN)c2)c1 | 18.2 µM |

| SMILES | IC50 |
| --- | --- |
| Cc1c(C(=O)Nc2ccnc(O[C@H]3CCOC3)c2)cc(C2CC2)n1C | > 25 µM |
| O=C(Nc1ccc2c(c1)CNC2)c1cccc(O)c1 | 3.94 µM |
| C=CC[C@H](Nc1cccc(Cl)c1)c1cccc(-c2nn[nH]n2)c1 | > 99.5 µM |
| NCc1cccc(NC(=O)[C@H]2Cc3ccccc3N2C(=O)OCc2ccccc2)c1 | > 99.5 µM |
| CNC(=O)c1cc(C#N)ccc1NS(=O)(=O)c1ccc(Oc2ccccc2Cl)cc1 | > 99.5 µM |
| NC[C@@H]1CN(c2cc(-c3ccc(N)nc3)cc3c2COB3O)C(=O)O1 | > 99.5 µM |
| CCn1cc(-c2ccccc2C(C)C)nc(N2CC[C@@H](CO)C2)c1=O | > 99.5 µM |
| O=C(O)Cn1nc2ccc(-c3cc(Cl)cc(NC(=O)OCc4ccccc4)c3)nn2c1=O | > 99.5 µM |
| NCc1cccc(NC(=O)c2cc(Cl)cc(CN)c2)c1 | < 2.49 µM |
| CC1(C)C[C@H](C(=O)Nc2ccc3c(c2)C(=O)OC3)CCN1 | > 25 µM |
| Cc1nc(C2CC2)sc1C(=O)Nc1cc(CCCN)ccn1 | > 25 µM |
| CNC(=O)[C@]1(Nc2ccc3c(c2)CNC3)CCc2ccccc21 | > 25 µM |
| C[C@]1(C(=O)N[C@H](C(=O)Nc2cccc(CN)c2)c2ccc(OCc3ccccc3)cc2)CCCO1 | > 99.5 µM |
| NCc1cccc(NC(=O)c2cc(Cl)cc(N3CCCC3)c2)c1 | 12 µM |
| Cc1cc(C(=O)Nc2ccc3c(c2)CNC3)cc2nc[nH]c12 | 0.121 µM |
| c1ccc2c(CN3CC[C@H](c4c[nH]c5ccccc45)C3)c[nH]c2c1 | > 99.5 µM |
| NCc1cccc(NC(=O)c2cc(NC(=O)OCc3ccccc3)cc3c2OC(F)(F)O3)c1 | > 99.5 µM |
| COc1cc(N[C@@H](C(=O)N2CCc3ccc(OC(F)(F)F)cc32)c2ccc(Cl)cc2)cc(OCCCC(=O)O)c1 | 20.4 µM |
| N[C@@H]1CC[C@H](NC(=O)c2cc(Cl)cc(NC(=O)OCc3ccccc3)c2)C1 | 45.3 µM |
| O=C(O)c1cscc1NS(=O)(=O)c1ccc(Oc2ccccc2Cl)cc1 | > 99.5 µM |
| Nc1nccc(C(=O)Nc2ccc3c(c2)CNC3)n1 | 46.9 µM |
| O=C(Nc1ccc2c(c1)CNC2)c1cc(Cl)cc2[nH]c(C3(n4ccnn4)CC3)nc12 | 0.765 µM |
| CCc1nccn1CC(=O)Nc1ccc2c(c1)CNC2 | > 99.5 µM |
| CC[C@H](Cc1nnn[nH]1)c1ccc(NC(=O)c2cc(Cl)cc(C3CC3)c2)cc1 | > 99.5 µM |
| NC(=O)c1cnccc1N1CCN(Cc2c[nH]c3ccccc23)CC1 | > 99.5 µM |

| SMILES | IC50 |
| --- | --- |
| c1ccc2c([C@H]3CCN(CC[C@H]4CCCO4)C3)c[nH]c2c1 | > 99.5 µM |
| COc1ccc(-c2cc(NS(=O)(=O)c3ccc(Cl)cc3C(=O)O)ccc2OC)cc1 | > 99.5 µM |
| CC(C)(C)OC(=O)N1Cc2ccc(NC(=O)c3cc(Cl)cc4[nH]ncc34)cc2C1 | > 25 µM |
| Clc1cc([C@H](C#Cc2ccccc2)Nc2ccc3c(c2)CNC3)c2cn[nH]c2c1 | 1.03 µM |
| O=C(Cn1ccnc(N2CC[C@H](CO)C2)c1=O)NCc1cc[nH]n1 | > 99.5 µM |
| C[C@@H](N)c1ccc(NC(=O)c2cc(Cl)cc3[nH]ncc23)cc1 | 2.91 µM |
| COc1ccccc1-c1ccc(S(=O)(=O)Nc2ccc(Cl)cc2C(=O)O)cc1 | 37.6 µM |
| C#Cc1cc(CN)ccc1NS(=O)(=O)c1ccc(Oc2ccccc2Cl)cc1 | > 99.5 µM |
| Cc1nc(C2(NC(=O)c3cccc4c3CC(=O)N4)CCC2)no1 | > 25 µM |
| O=C1C[C@H]2CN(C(=O)Nc3ccc4c(c3)CNC4)CC[C@H]2N1 | > 25 µM |
| C[C@@H]1C[C@H](NS(=O)(=O)c2ccc(Cl)cc2C(=O)O)C[C@H](C)N1Cc1ccccc1 | > 99.5 µM |
| O=C(Nc1cc(Cl)cc(C(=O)NC[C@H]2C[C@@H]2C(=O)O)c1)OCc1ccccc1 | > 99.5 µM |
| NC[C@H]1C[C@H]1NC(=O)c1cc(Cl)cc(NC(=O)OCc2ccccc2)c1 | > 99.5 µM |
| N#C[C@]1(Nc2ccc3c(c2)CNC3)C(=O)Nc2ccccc21 | 27.4 µM |
| O=C(Nc1ccc2[nH]c(=O)[nH]c2c1)c1cc(F)cc2[nH]ncc12 | > 25 µM |
| O=C(NCCC1CC1)[C@H](Nc1ccc2c(c1)CNC2)c1cc(Cl)cc(C2CC2)c1 | 0.074 µM and 0.049 µM |
| NCc1cccc(NC(=O)C2(CNC(=O)OCc3ccccc3)CCCC2)c1 | > 99.5 µM |
| CC[C@H](Cc1nn[nH]n1)c1ccc(N[C@H](C(=O)NC)c2cc(Cl)cc(NC(=O)OCc3ccccc3)c2)cc1 | 79.1 µM |
| N#Cc1ccc(-c2nc3c(C(=O)Nc4ccc5c(c4)CNC5)cc(F)cc3[nH]2)cc1 | 0.014 µM and 0.013 µM and 0.01 µM |
| C=CC[C@H](Nc1cc(Cl)cc(NC(=O)OCc2ccccc2)c1)c1cccc(-c2nn[nH]n2)c1 | 13.5 µM and 9.86 µM and 11 µM |
| CN1CCC(c2nc(C(F)(F)F)n3c2CN(c2cccc(C(N)=O)n2)CC3)CC1 | > 99.5 µM |
| CC(=O)N1CCC([C@H](NC(=O)OCc2ccccc2)C(=O)Nc2cccc(CN)c2)CC1 | > 99.5 µM |
| Cc1c(C(=O)Nc2cccc(-c3ccc(=O)[nH]n3)c2)cc(C2CC2)n1C | > 25 µM |
| O=C(NCCCF)[C@H](Nc1ccc2c(c1)CNC2)c1cc(Cl)cc(C2CC2)c1 | 0.059 µM and 0.033 µM |
| NCc1cccc(NC(=O)c2cc(Cl)cc(C3CC3)c2)c1 | 8.27 µM |
